13 compounds from ChEMBL document CHEMBL1201862, “PubChem BioAssay data set” (2004) can be followed below.

Structures are written as SMILES.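 All cell lines were grown in 96-well plates and treated with compound for 48 hours. GI50: concentration for 50% inhibition of growth.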 Active and inactive are the calls of the source. Rule as the data show it: active = GI50 up to about 1.1 µM and inactive = higher.

What all share (experiment): growth of human tumour cells (NCI), 48 h
For experiment [1], the system named is HCT-15.
In experiment [2] the test system is SF-268.
For experiment [3], the system named is SK-MEL-5.
The test system of experiment [4] is UACC-257.
In experiment [5] the test system is CCRF-CEM.
In experiment [6] the test system is K562.
Experiment [7] has as its system A498.
Experiment [8] relates to SR.
For experiment [9], the system named is EKVX.
Experiment [10] relates to OVCAR-3.
Experiment [11] has as its system M14.
The subject of experiment [12] is OVCAR-4.
Experiment [13] relates to SW-620.
The subject of experiment [14] is TK-10.
For experiment [15], the system named is SK-OV-3.
Experiment [16] has as its system NCI-H23.
Experiment [17] relates to RXF 393.

For `CC(=O)/C=C/c1cccc(N=S)c1`, the GI50 in experiment [1] was 8.79 µM; in [2] it was > 30.3 µM (inactive); in [3], 23.4 µM (inactive); in experiment [4], 29.4 µM (inactive); in experiment [5], 8.24 µM (inactive); in experiment [6], 4.62 µM (inactive). Also, the GI50 was 27 µM (inactive) in [7]; 7.78 µM (inactive) in [8]; > 40.8 µM (inactive) in [9]; 19.2 µM (inactive) in [10]; 6.71 µM (inactive) in [11]; 52.2 µM (inactive) in experiment [12]. For the same compound, the GI50 in [13] was 2.44 µM (inactive); in experiment [14] it was > 52.8 µM (inactive); in experiment [15], > 48.1 µM (inactive); in experiment [16] it was 30.7 µM (inactive); in experiment [17], 17.6 µM (inactive).

With `[N-]=[N+]=Nc1ncnc2c1sc(=S)n2-c1ccccc1`, the GI50 in experiment [1] is greater than 100 µM; in experiment [2], > 100 µM (inactive); in experiment [3] it was > 100 µM (inactive); in [4], > 100 µM (inactive); in [5], > 100 µM (inactive); in experiment [6], > 100 µM (inactive). Moreover, the GI50 in [7] was 78.9 µM (inactive); in experiment [8], > 100 µM (inactive); in experiment [9], > 100 µM (inactive); in experiment [10], > 100 µM (inactive); in experiment [11] it was > 100 µM (inactive); in experiment [12], > 100 µM (inactive). The GI50 in experiment [13], in [14], in [15], in [16] and in [17] was > 100 µM (inactive) throughout.

On to `C=CN1C(=O)[C@H](Oc2ccccc2)[C@@H]1c1ccccc1`, for which the GI50 in experiment [1] was 41.1 µM; in experiment [2], 37.2 µM (inactive); in experiment [3], 31.5 µM (inactive); in experiment [4], 41.5 µM (inactive); in experiment [5] it was 46.8 µM (inactive); in experiment [6], 36.3 µM (inactive). For the same compound, the GI50 in [7] was 71.4 µM (inactive); in experiment [8], 40.3 µM (inactive); in [9] it was 47.8 µM (inactive); in experiment [11], 33.1 µM (inactive); in [13], 33.3 µM (inactive); in experiment [14] it was 37.2 µM (inactive). For the same compound, the results for the GI50 in [15], in experiment [16] and in experiment [17] were 32.1 µM (inactive), 21.7 µM (inactive) and 17.8 µM (inactive), respectively.

In the case of `CCN(CC)c1ccc(/N=N/c2ccc(-c3nc4cccnc4s3)cc2)cc1`, the GI50 is 57.5 µM (inactive) in [2]; > 100 µM (inactive) in experiment [3]; > 100 µM (inactive) in experiment [4]; > 100 µM (inactive) in experiment [5]; > 100 µM (inactive) in experiment [6]; > 100 µM (inactive) in [7]. For the same compound, the GI50 in [8] was > 100 µM (inactive); in experiment [9], > 100 µM (inactive); in experiment [10] it was > 100 µM (inactive); in experiment [11], > 100 µM (inactive); in experiment [12], 43.3 µM (inactive); in [13], > 100 µM (inactive). Besides, the GI50 in experiment [14], in [15] and in experiment [16] was > 100 µM (inactive) throughout.

Turning to `COC(=O)[C@H]1C=C[C@@H](C)n2c(=O)c3ccccc3c(=O)n21`, the GI50 was greater than 100 µM in experiment [1]; > 100 µM (inactive) in experiment [2]; > 100 µM (inactive) in experiment [3]; > 100 µM (inactive) in experiment [4]; > 100 µM (inactive) in experiment [5]; > 100 µM (inactive) in [6]. Besides, the GI50 in experiment [7], in [8], in experiment [9], in experiment [10], in [11] and in experiment [12] was > 100 µM (inactive) throughout. In addition, the GI50 in experiment [13], in experiment [14], in [15], in experiment [16] and in [17] was > 100 µM (inactive) each time.

Take `CC(C)(C)OC(=O)c1cccnc1/C=N/O`: the GI50 in experiment [1] was 51.9 µM; in experiment [2], > 100 µM (inactive); in [3], > 100 µM (inactive); in [4], > 100 µM (inactive); in [5] it was 67.1 µM (inactive); in experiment [6] it was > 100 µM (inactive). For the same compound, the GI50 in experiment [8] was > 100 µM (inactive); in [9], > 100 µM (inactive); in experiment [10], 53.1 µM (inactive); in experiment [11], > 100 µM (inactive); in [12], > 100 µM (inactive); in [13] it was 58.6 µM (inactive). Further, the GI50 in experiment [14], in experiment [15], in [16] and in experiment [17] was > 100 µM (inactive) in each case.

As to `COC(CC1(OC)OC(=O)C=C1N)OC` (stereo unspecified), the GI50 in experiment [1] is greater than 100 µM; in experiment [2], > 100 µM (inactive); in experiment [3], > 100 µM (inactive); in [4] it was > 100 µM (inactive); in [5], > 100 µM (inactive); in experiment [6] it was > 100 µM (inactive). The GI50 in experiment [7], in experiment [8], in experiment [9], in [10], in experiment [11] and in experiment [12] was > 100 µM (inactive) throughout. The GI50 in [13], in experiment [14], in [15] and in experiment [16] was > 100 µM (inactive) each time.

With `O=C1c2ccccc2C(=O)N1C/C=N/NS(=O)(=O)c1cccc([N+](=O)[O-])c1`, the GI50 is greater than 100 µM in experiment [1]; > 100 µM (inactive) in experiment [2]; > 100 µM (inactive) in experiment [3]; > 100 µM (inactive) in experiment [4]; > 100 µM (inactive) in experiment [5]; > 100 µM (inactive) in experiment [6]. The GI50 in experiment [7], in experiment [8], in [9], in [11], in experiment [12] and in [13] was > 100 µM (inactive) each time. Besides, the GI50 in [14], in experiment [16] and in experiment [17] was > 100 µM (inactive) throughout.

Turning to `O=C(Nc1nc2ccccc2n1Cc1ccccc1)NC12CC3CC(CC(C3)C1)C2`, the GI50 in [1] was greater than 100 µM; in experiment [2] it was 14.4 µM (inactive); in experiment [3] it was 54.6 µM (inactive); in experiment [4], > 100 µM (inactive); in experiment [5] it was > 100 µM (inactive); in experiment [6], > 100 µM (inactive). Further, the GI50 was 80.2 µM (inactive) in experiment [8]; > 100 µM (inactive) in experiment [9]; 38.5 µM (inactive) in experiment [10]; 92.5 µM (inactive) in experiment [11]; 20.7 µM (inactive) in [12]; > 100 µM (inactive) in [13]. The GI50 in [14] was 65.5 µM (inactive); in experiment [15], 27.9 µM (inactive); in [16], 42.9 µM (inactive); in experiment [17], 19.5 µM (inactive).

Turning to `CNC1=Nc2ccc(Cl)cc2C(OP(=O)(N2CCOCC2)N2CCOCC2)=NC1`, the GI50 was greater than 100 µM in experiment [1]; > 100 µM (inactive) in [3]; > 100 µM (inactive) in [4]; > 100 µM (inactive) in experiment [5]; > 100 µM (inactive) in experiment [6]; > 100 µM (inactive) in experiment [7]. The GI50 in experiment [8] was > 100 µM (inactive); in experiment [9], 84.9 µM (inactive); in experiment [10] it was > 100 µM (inactive); in experiment [11] it was > 100 µM (inactive); in experiment [12], > 100 µM (inactive); in [13] it was > 100 µM (inactive). For the same compound, the GI50 in [14], in experiment [16] and in experiment [17] was > 100 µM (inactive) each time.

For `CC(=O)c1ccc(NC(=O)C(=O)C(C(=O)/C=C/c2ccccc2)C2OC(=O)c3ccccc32)cc1` (stereo unspecified), the GI50 in experiment [1] was greater than 100 µM; in experiment [2], > 100 µM (inactive); in experiment [3], > 100 µM (inactive); in experiment [4] it was > 100 µM (inactive); in experiment [5] it was 53.5 µM (inactive); in experiment [6], 74.5 µM (inactive). Besides, the GI50 in experiment [7] is > 100 µM (inactive); in [8], 60.8 µM (inactive); in [9] it was > 100 µM (inactive); in experiment [11], > 100 µM (inactive); in [12] it was > 100 µM (inactive); in experiment [13], > 100 µM (inactive). In addition, the GI50 in experiment [14], in experiment [15], in experiment [16] and in [17] was > 100 µM (inactive) throughout.

`N#C/C(=C/c1cccc2ccccc12)C(=O)c1ccccc1`: the GI50 in experiment [1] was 19 µM; in experiment [3], > 10 µM (inactive); in experiment [4], > 10 µM (inactive); in experiment [5] it was 16.6 µM (inactive); in experiment [6], > 10 µM (inactive); in experiment [7] it was 23.1 µM (inactive). In addition, the GI50 is 26.9 µM (inactive) in experiment [8]; > 10 µM (inactive) in [9]; 48.6 µM (inactive) in [10]; 16.9 µM (inactive) in experiment [11]; > 100 µM (inactive) in experiment [12]; 16.8 µM (inactive) in experiment [13]. In addition, the GI50 is 35.4 µM (inactive) in experiment [14], > 100 µM (inactive) in [15] and 17.8 µM (inactive) in [16].

For `CCCCCCC(O)C/C=C/CCCCCC/C(C(=O)OC)=C(/O)C(=O)OCC` (stereo unspecified), the GI50 in experiment [1] was greater than 100 µM; in experiment [2], > 100 µM (inactive); in experiment [3], > 100 µM (inactive); in experiment [4], > 100 µM (inactive); in experiment [5], > 100 µM (inactive); in experiment [6] it was 97.7 µM (inactive). Besides, the GI50 in experiment [7] was > 100 µM (inactive); in [8], 7.93 µM (inactive); in experiment [9], > 100 µM (inactive); in [10], > 100 µM (inactive); in experiment [11] it was > 100 µM (inactive); in experiment [12], > 100 µM (inactive). In addition, the GI50 in experiment [13], in experiment [14], in [15] and in experiment [16] was > 100 µM (inactive) in each case.
